Literature values, collected in patent US20180273780A1, “WATER-BASED INK COMPOSITION FOR INK JET RECORDING AND COLORING MATERIAL LIQUID” (Seiko Epson Corporation, priority 2017, published 2018).

| Compound | water-octanol partition coefficient (log P) |
| --- | --- |
| CCCN1CCCC1=O [1-propyl-2-pyrrolidone] | 0.67 |
| CCCCCCOCC(O)CO (stereo not drawn) [3-(hexyloxy)-1,2-propanediol] | 1.36 |
| CCCCOCCC(=O)N(C)C [3-butoxy-N,N-dimethylpropanamide] | 0.86 |
| CCCCOCCOCCO [butyl diglycol] | 0.56 |
| CCCCC(CC)COCCOCCO (stereo not drawn) [diethylene glycol-2-ethylhexyl ether] | 2.4 |
| tritrimethylolpropane | 0.97 |
